Test results reported in PMC10714390, “Quinoline Compounds Targeting the c-Ring of ATP Synthase Inhibit Drug-Resistant Pseudomonas aeruginosa” (ACS Infectious Diseases, 2023).
Values joined by “and” are separate entries in the source; they are usually repeats but may differ in a detail not shown here. Identical values can stand only once.

What was measured:
[1] = system: EC electron transport chain; assay: Electron transport activity (NADH-driven H+ pumping, ACMA quenching), E. coli DK8/pASH20 vesicles; format: biochemical, Escherichia coli; settings: for inhibition of EC ETC-driven H+ pumping, in words: 0-64 µg/mL, Figure S2; for Inhibition of the EC electron transport chain IC50: EC (DK8/pASH20) vesicles
Protocol: Determination of electron transport activity. In an opaque black 96-well plate, inverted membrane
vesicles from PA or E. coli DK8 pASH20 were added to HMK buffer containing 0.3 µg/mL 9-amino-6-chloro-
2-methoxyacridine (ACMA) and 0-64 µg/mL test compound in DMSO. After measurement of baseline
ACMA fluorescence for 60 s, redox-driven H+ pumping was initiated by addition of NADH to 0.8 mM, and
fluorescence quenching was monitored for 120 s before addition of nigericin to 0.5 µg/mL. Relative
activity is reported as the minimum fluorescence value normalized to the maximum fluorescence value
following addition of nigericin. […]

[2] = system: drug-resistant P. aeruginosa BAA 2108; assay: Antimicrobial susceptibility (broth microdilution), BAA 2108; format: cell-based, Pseudomonas aeruginosa; settings: for MIC: Pseudomonas aeruginosa, BAA2108, read-out: antibacterial activity (MIC) BAA 2108; for antibacterial activity in words, BAA 2108: summary of Table 1
Protocol: The following are general steps, unless otherwise noted. All steps were completed using aseptic techniques. All media and glassware were sterilized via an autoclave at 121 °C for 60 min. All agitation occurred at 160 rpm in a temperature-controlled console shaker (Excella E25) at 37 °C. Full-strength tryptic soy broth (TSB) was made by dissolving 30 g of BD Bacto TSB powder in 1 L of deionized water. Purchased and acquired bacterial strains used were E. coli (ATCC 25922), P. aeruginosa (ATCC 9027), drug-resistant P. aeruginosa from ATCC Panel MP-23 (BAA 2108, BAA 2109, BAA 2110), and P. aeruginosa efflux knockout GKCW120 (PΔ6)[6] provided by Zgurskaya and co-workers at the University of Oklahoma.
Susceptibility testing was performed in biological triplicate using the broth microdilution method as outlined by the Clinical and Laboratory Standards Institute. […] Briefly, to each well, 1 μL of compound in DMSO, 89 μL of TSB, and 10 μL of bacterial inoculum, grown from a single colony in 10 mL of TSB for 4–6 h, were added. After incubation for 12–15 h at 37 °C, absorbance at 590 nm was read on a Biotek Synergy HTX Multimode plate reader. Data were processed by background subtracting the media absorbance and then normalizing the data to full bacterial growth with the vehicle only. MIC is defined as the lowest concentration of antibiotic or antibiotic/adjuvant combination that achieves ≥85% growth inhibition, which corresponds to no visible growth.

[3] = molecular target: T1, PA ATP synthase expressed in E. coli DK8/pASH20 (Pseudomonas aeruginosa, UniProt Q9HT15); assay: NADH-driven ATP synthesis inhibition, DK8/pASH20 membrane vesicles; format: biochemical; settings: for IC50: ATP synthesis IC50, DK8/pASH20 vesicles, wild-type PA ATP synthase in E. coli DK8, NADH-driven, end point luminescence assay; for Hill coefficient of dose response fit, DK8/pASH20 vesicles: inhibition of ATP synthesis activity
T1 construct: expressed in transfected cells; host or cells: E. coli K-12 DK8 (lacks its own ATP synthase) transformed with pASH20 (pBR322 derivative)
Protocol: (§1) P. aeruginosa (ATCC 9027) was streaked onto a 10% TSB agar plate and incubated at room temperature for 72 h. A single colony was resuspended in 100 μL of H2O, and 5 μL was used as the DNA template for PCR with Q5 polymerase (NEB) and […] each of forward and reverse primers. Primers were complementary to regions flanking the atp operon and included sequences for HindIII and NdeI restriction sites (see the SI for primer sequences). The resulting 6.9 kbp DNA fragment was digested with HindIII and NdeI and ligated into digested vector pBR322 (New England Biolabs). The resultant pASH20(-i) plasmid contains a partial atpI gene. To complete the atpI gene, the HindII-XhoI fragment of pASH20(-i) was replaced with a synthetic fragment with a complete atpI (Twist Bioscience) to yield pASH20. The sequence of the entire operon was verified by Sanger DNA sequencing through the ligation sites. Subunit c mutations were introduced by exchanging the XhoI-BamHI fragment containing atpE with a synthetic fragment containing mutated atpE (Twist Bioscience).
(§2) Vesicles were prepared from P. aeruginosa and transformed E. coli cells as previously described.[22] Briefly, cells were grown in LB liquid medium at 37 °C with shaking and harvested by centrifugation after 7 h of growth. Cultures of transformant E. coli included 100 μg/mL ampicillin. Cells were disrupted in TMG buffer (50 mM Tris-HCl, MgCl2, 10% (v/v) glycerol, pH 7.5) using an Avestin B15 homogenizer at 19,000 psi. After unbroken cells and debris were cleared by centrifugation at 9000g, inverted vesicles were collected by centrifugation at 193,000g, resuspended in TMG buffer, and stored at −80 °C. Protein concentrations were determined using a modified Lowry assay.[25]
(§3) Continuous ATP synthesis activity of inverted membrane vesicles was measured using a luciferin/luciferase luminescence assay as previously described.[22] Inhibition of ATP synthesis activity by test compounds was determined using an end point assay essentially as previously described.[18],[26] In this assay, the synthesis reaction was initiated by 2.5 mM NADH, proceeded for 10 min, and was stopped with 1% trichloroacetic acid, 2 mM CCCP, and 10 mM EDTA. Samples from each reaction were diluted 500-fold prior to the addition of luciferase since quinoline compounds are known to inhibit luciferase.[27] This dilution was sufficient to minimize inhibition of luciferase (Figure S4). Each replicate set included a positive control containing DMSO with no compound and a negative control containing carbonyl cyanide m-chlorophenyl hydrazone. Luminescence values were corrected for the background by subtracting the negative control and then normalized to the positive control within the same replicate. Dose–response curves were fit using eq 1, where activity is the relative ATP synthesis activity, [I] is the concentration of inhibitor in μg/mL, and n is the Hill coefficient. [drawing 1] 1

[4] = molecular target: T2, PA ATP synthase cIle65Ala mutant (Pseudomonas aeruginosa, UniProt Q9HT15, I65A); assay: NADH-driven ATP synthesis inhibition, DK8/pASH20 cI65A membrane vesicles; format: biochemical; settings: for IC50: ATP synthesis IC50, DK8/pASH20 cI65A vesicles, cI65A mutant, NADH-driven, luminescence assay; for Hill coefficient of dose response fit, DK8/pASH20 cI65A vesicles: inhibition of ATP synthesis activity
T2 construct: expressed in transfected cells; host or cells: E. coli K-12 DK8 transformed with pASH20 carrying mutated atpE
Protocol: as §1, §2, §3

[5] = molecular target: T3, PA ATP synthase (Pseudomonas aeruginosa, UniProt Q9HT15); assay: NADH-driven ATP synthesis inhibition, PA inverted membrane vesicles; format: biochemical; settings: for Hill coefficient of dose response fit, PA vesicles: inhibition of ATP synthesis activity; for IC50: inverted membrane vesicles from PA 9027, NADH-driven, end point luminescence assay
T3 construct: Inverted membrane vesicles were prepared from PA 9027; endogenous in cells; host or cells: Pseudomonas aeruginosa ATCC 9027, inverted membrane vesicles
Protocol: as §2, §3

Structure (SMILES)	inhibition of EC ETC-driven H+ pumping, in words [1]	Inhibition of the EC electron transport chain IC50 [1] [µg/mL]	MIC [2] [µg/mL]	antibacterial activity in words, BAA 2108 [2]	IC50 [3]	Hill coefficient of dose response fit, DK8/pASH20 vesicles [3]	IC50 [4]	Hill coefficient of dose response fit, DK8/pASH20 cI65A vesicles [4]	Hill coefficient of dose response fit, PA vesicles [5]	IC50 [5]
CSc1nc2ccccc2cc1CNCc1ccc(CN(C)C)cc1 [Compound 4, N,N-Dimethyl-1-(4-((((2-(methylthio)quinolin-3-yl)methyl)amino)methyl)phenyl)methanamine]	mildly inhibited	61	128 to 256	able to inhibit	86.2 µM and 85.3 µM	1.0	59.5 µM and 59.7 µM	1.2	0.8	31.3 µM and 31.6 µM
CN(C)Cc1ccc(CNCc2cc3ccccc3nc2SCc2ccccc2)cc1 [Compound 5, 1-(4-((((2-(Benzylthio)quinolin-3-yl)methyl)amino)methyl)phenyl)-N,N-dimethylmethanamine]	mildly inhibited	>64	64	more potent	5.38 µM	1.3	13.3 µM	1.7	0.8	1.64 µM
